Measured values reported in the NIST ThermoML archive (doi:10.1016/j.jct.2016.04.003).
Numbers after ± are expanded uncertainties.

Assay: refractive index (Na D-line) (dimensionless); xn = mol fraction of the nth substance listed
Conditions: 99 kPa, Liquid, Standard Abbe refractometry

CCCC[n+]1ccccc1.F[B-](F)(F)F [1-butylpyridinium tetrafluoroborate] + O
refractive index (293.15 K, x1 = 0.0165): 1.34819 ± 0.00035
refractive index (293.15 K, x1 = 0.0379): 1.36348 ± 0.00033
refractive index (293.15 K, x1 = 0.0863): 1.38639 ± 0.00032
refractive index (293.15 K, x1 = 0.101): 1.39141 ± 0.00032
refractive index (293.15 K, x1 = 0.134): 1.40063 ± 0.00032
refractive index (293.15 K, x1 = 0.243): 1.41888 ± 0.00032
refractive index (293.15 K, x1 = 0.289): 1.42371 ± 0.00032
refractive index (293.15 K, x1 = 0.3456): 1.42826 ± 0.00032
refractive index (293.15 K, x1 = 0.4217): 1.43287 ± 0.00032
refractive index (293.15 K, x1 = 0.5485): 1.43815 ± 0.00033
refractive index (293.15 K, x1 = 0.6029): 1.43987 ± 0.00034
refractive index (293.15 K, x1 = 0.7232): 1.44283 ± 0.00034
refractive index (293.15 K, x1 = 0.8005): 1.44431 ± 0.00035
refractive index (293.15 K, x1 = 0.8575): 1.44526 ± 0.00036
refractive index (293.15 K, x1 = 0.9315): 1.44633 ± 0.00036
refractive index (293.15 K, x1 = 1): 1.44719 ± 0.00037
refractive index (303.15 K, x1 = 0.0165): 1.34644 ± 0.00035
refractive index (303.15 K, x1 = 0.0379): 1.3612 ± 0.00033
refractive index (303.15 K, x1 = 0.0863): 1.38392 ± 0.00032
refractive index (303.15 K, x1 = 0.101): 1.38881 ± 0.00032
refractive index (303.15 K, x1 = 0.134): 1.39805 ± 0.00032
refractive index (303.15 K, x1 = 0.243): 1.41639 ± 0.00032
refractive index (303.15 K, x1 = 0.289): 1.42115 ± 0.00032
refractive index (303.15 K, x1 = 0.3456): 1.42571 ± 0.00032
refractive index (303.15 K, x1 = 0.4217): 1.4303 ± 0.00032
refractive index (303.15 K, x1 = 0.5485): 1.43558 ± 0.00033
refractive index (303.15 K, x1 = 0.6029): 1.43726 ± 0.00034
refractive index (303.15 K, x1 = 0.7232): 1.44021 ± 0.00034
refractive index (303.15 K, x1 = 0.8005): 1.44168 ± 0.00035
refractive index (303.15 K, x1 = 0.8575): 1.44261 ± 0.00036
refractive index (303.15 K, x1 = 0.9315): 1.44368 ± 0.00036
refractive index (303.15 K, x1 = 1): 1.44454 ± 0.00037
refractive index (313.15 K, x1 = 0.0165): 1.34468 ± 0.00034
refractive index (313.15 K, x1 = 0.0379): 1.35896 ± 0.00033
refractive index (313.15 K, x1 = 0.0863): 1.38128 ± 0.00032
refractive index (313.15 K, x1 = 0.101): 1.38613 ± 0.00032
refractive index (313.15 K, x1 = 0.134): 1.39527 ± 0.00032
refractive index (313.15 K, x1 = 0.243): 1.41376 ± 0.00032
refractive index (313.15 K, x1 = 0.289): 1.41853 ± 0.00032
refractive index (313.15 K, x1 = 0.3456): 1.42304 ± 0.00032
refractive index (313.15 K, x1 = 0.4217): 1.42763 ± 0.00032
refractive index (313.15 K, x1 = 0.5485): 1.43295 ± 0.00033
refractive index (313.15 K, x1 = 0.6029): 1.43463 ± 0.00034
refractive index (313.15 K, x1 = 0.7232): 1.43755 ± 0.00034
refractive index (313.15 K, x1 = 0.8005): 1.43905 ± 0.00035
refractive index (313.15 K, x1 = 0.8575): 1.43999 ± 0.00036
refractive index (313.15 K, x1 = 0.9315): 1.44105 ± 0.00036
refractive index (313.15 K, x1 = 1): 1.44191 ± 0.00037
refractive index (323.15 K, x1 = 0.0165): 1.34263 ± 0.00034
refractive index (323.15 K, x1 = 0.0379): 1.35635 ± 0.00033
refractive index (323.15 K, x1 = 0.0863): 1.37835 ± 0.00032
refractive index (323.15 K, x1 = 0.101): 1.38331 ± 0.00032
refractive index (323.15 K, x1 = 0.134): 1.3926 ± 0.00032
refractive index (323.15 K, x1 = 0.243): 1.41106 ± 0.00032
refractive index (323.15 K, x1 = 0.289): 1.41585 ± 0.00032
refractive index (323.15 K, x1 = 0.3456): 1.42041 ± 0.00032
refractive index (323.15 K, x1 = 0.4217): 1.42496 ± 0.00032
refractive index (323.15 K, x1 = 0.5485): 1.43025 ± 0.00033
refractive index (323.15 K, x1 = 0.6029): 1.43194 ± 0.00034
refractive index (323.15 K, x1 = 0.7232): 1.43489 ± 0.00034
refractive index (323.15 K, x1 = 0.8005): 1.43637 ± 0.00035
refractive index (323.15 K, x1 = 0.8575): 1.43731 ± 0.00036
refractive index (323.15 K, x1 = 0.9315): 1.43838 ± 0.00036
refractive index (323.15 K, x1 = 1): 1.43923 ± 0.00037

CCC[n+]1ccccc1.F[B-](F)(F)F [1-propylpyridinium tetrafluoroborate] + O
refractive index (293.15 K, x1 = 0.0185): 1.34795 ± 0.00035
refractive index (293.15 K, x1 = 0.0287): 1.3549 ± 0.00033
refractive index (293.15 K, x1 = 0.0466): 1.36529 ± 0.00033
refractive index (293.15 K, x1 = 0.0766): 1.37888 ± 0.00032
refractive index (293.15 K, x1 = 0.0964): 1.38592 ± 0.00032
refractive index (293.15 K, x1 = 0.2011): 1.40941 ± 0.00033
refractive index (293.15 K, x1 = 0.2858): 1.41984 ± 0.00034
refractive index (293.15 K, x1 = 0.3993): 1.42862 ± 0.00035
refractive index (293.15 K, x1 = 0.4979): 1.4337 ± 0.00037
refractive index (293.15 K, x1 = 0.5772): 1.43677 ± 0.00039
refractive index (293.15 K, x1 = 0.6015): 1.43757 ± 0.0004
refractive index (293.15 K, x1 = 0.6695): 1.43957 ± 0.00041
refractive index (293.15 K, x1 = 0.7309): 1.44111 ± 0.00043
refractive index (293.15 K, x1 = 0.7771): 1.44212 ± 0.00044
refractive index (293.15 K, x1 = 0.8395): 1.44335 ± 0.00046
refractive index (293.15 K, x1 = 0.9054): 1.44449 ± 0.00048
refractive index (293.15 K, x1 = 0.9633): 1.44537 ± 0.0005
refractive index (293.15 K, x1 = 1): 1.44588 ± 0.00051
refractive index (303.15 K, x1 = 0.0185): 1.34613 ± 0.00034
refractive index (303.15 K, x1 = 0.0287): 1.35282 ± 0.00033
refractive index (303.15 K, x1 = 0.0466): 1.36297 ± 0.00033
refractive index (303.15 K, x1 = 0.0766): 1.37637 ± 0.00032
refractive index (303.15 K, x1 = 0.0964): 1.38337 ± 0.00032
refractive index (303.15 K, x1 = 0.2011): 1.40683 ± 0.00033
refractive index (303.15 K, x1 = 0.2858): 1.41727 ± 0.00034
refractive index (303.15 K, x1 = 0.3993): 1.42604 ± 0.00035
refractive index (303.15 K, x1 = 0.4979): 1.4311 ± 0.00037
refractive index (303.15 K, x1 = 0.5772): 1.43415 ± 0.00039
refractive index (303.15 K, x1 = 0.6015): 1.43495 ± 0.0004
refractive index (303.15 K, x1 = 0.6695): 1.43694 ± 0.00041
refractive index (303.15 K, x1 = 0.7309): 1.43847 ± 0.00043
refractive index (303.15 K, x1 = 0.7771): 1.43948 ± 0.00044
refractive index (303.15 K, x1 = 0.8395): 1.4407 ± 0.00046
refractive index (303.15 K, x1 = 0.9054): 1.44183 ± 0.00048
refractive index (303.15 K, x1 = 0.9633): 1.44271 ± 0.0005
refractive index (303.15 K, x1 = 1): 1.44322 ± 0.00051
refractive index (313.15 K, x1 = 0.0185): 1.34407 ± 0.00034
refractive index (313.15 K, x1 = 0.0287): 1.35055 ± 0.00033
refractive index (313.15 K, x1 = 0.0466): 1.36049 ± 0.00033
refractive index (313.15 K, x1 = 0.0766): 1.37374 ± 0.00032
refractive index (313.15 K, x1 = 0.0964): 1.38071 ± 0.00032
refractive index (313.15 K, x1 = 0.2011): 1.40419 ± 0.00033
refractive index (313.15 K, x1 = 0.2858): 1.41465 ± 0.00034
refractive index (313.15 K, x1 = 0.3993): 1.42343 ± 0.00035
refractive index (313.15 K, x1 = 0.4979): 1.42848 ± 0.00037
refractive index (313.15 K, x1 = 0.5772): 1.43152 ± 0.00039
refractive index (313.15 K, x1 = 0.6015): 1.43233 ± 0.0004
refractive index (313.15 K, x1 = 0.6695): 1.4343 ± 0.00041
refractive index (313.15 K, x1 = 0.7309): 1.43583 ± 0.00043
refractive index (313.15 K, x1 = 0.7771): 1.43685 ± 0.00044
refractive index (313.15 K, x1 = 0.8395): 1.43806 ± 0.00046
refractive index (313.15 K, x1 = 0.9054): 1.43918 ± 0.00048
refractive index (313.15 K, x1 = 0.9633): 1.44006 ± 0.0005
refractive index (313.15 K, x1 = 1): 1.44057 ± 0.00051
refractive index (323.15 K, x1 = 0.0185): 1.34187 ± 0.00034
refractive index (323.15 K, x1 = 0.0287): 1.34817 ± 0.00033
refractive index (323.15 K, x1 = 0.0466): 1.35792 ± 0.00033
refractive index (323.15 K, x1 = 0.0766): 1.37105 ± 0.00032
refractive index (323.15 K, x1 = 0.0964): 1.37801 ± 0.00032
refractive index (323.15 K, x1 = 0.2011): 1.40152 ± 0.00033
refractive index (323.15 K, x1 = 0.2858): 1.41202 ± 0.00034
refractive index (323.15 K, x1 = 0.3993): 1.42083 ± 0.00035
refractive index (323.15 K, x1 = 0.4979): 1.42588 ± 0.00037
refractive index (323.15 K, x1 = 0.5772): 1.42891 ± 0.00039
refractive index (323.15 K, x1 = 0.6015): 1.42971 ± 0.0004
refractive index (323.15 K, x1 = 0.6695): 1.43169 ± 0.00041
refractive index (323.15 K, x1 = 0.7309): 1.43321 ± 0.00043
refractive index (323.15 K, x1 = 0.7771): 1.43422 ± 0.00044
refractive index (323.15 K, x1 = 0.8395): 1.43543 ± 0.00046
refractive index (323.15 K, x1 = 0.9054): 1.43656 ± 0.00048
refractive index (323.15 K, x1 = 0.9633): 1.43742 ± 0.0005
refractive index (323.15 K, x1 = 1): 1.43793 ± 0.00051
